Test results published in paper PMC5432238, “Pre-clinical evaluation of small molecule LOXL2 inhibitors in breast cancer” (Oncotarget, 2017).

How the values were obtained:
recombinant LOXL2 = molecular target: T1, recombinant LOXL2 (Homo sapiens, UniProt Q9Y4K0); experiment: Amplex Red activity/inhibition assay, recombinant LOXL2; format: biochemical; conditions: putrescine substrate
T1 construct: purchased R&D Systems
T1 sequence (Q9Y4K0 26-774): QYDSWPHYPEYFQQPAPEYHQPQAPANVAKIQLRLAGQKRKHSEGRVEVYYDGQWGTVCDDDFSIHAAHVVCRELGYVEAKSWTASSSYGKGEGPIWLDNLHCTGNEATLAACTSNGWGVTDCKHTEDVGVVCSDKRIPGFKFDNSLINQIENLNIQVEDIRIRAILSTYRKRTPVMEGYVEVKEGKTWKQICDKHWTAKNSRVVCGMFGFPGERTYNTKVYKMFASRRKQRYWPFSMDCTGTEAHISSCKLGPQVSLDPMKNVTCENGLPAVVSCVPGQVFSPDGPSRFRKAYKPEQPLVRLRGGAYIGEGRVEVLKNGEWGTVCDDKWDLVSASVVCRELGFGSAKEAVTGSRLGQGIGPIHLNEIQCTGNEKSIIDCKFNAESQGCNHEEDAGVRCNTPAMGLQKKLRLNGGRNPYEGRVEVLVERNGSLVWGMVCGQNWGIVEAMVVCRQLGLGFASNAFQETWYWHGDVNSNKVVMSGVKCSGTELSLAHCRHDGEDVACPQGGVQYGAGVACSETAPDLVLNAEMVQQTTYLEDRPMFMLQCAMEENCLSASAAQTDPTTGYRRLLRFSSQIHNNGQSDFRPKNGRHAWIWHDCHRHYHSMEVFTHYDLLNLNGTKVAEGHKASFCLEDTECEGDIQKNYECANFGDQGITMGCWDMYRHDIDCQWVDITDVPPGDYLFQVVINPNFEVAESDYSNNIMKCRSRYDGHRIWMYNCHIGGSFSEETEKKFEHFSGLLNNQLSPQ
Protocol: (§1) The standard amplex red assay has been used as previously described using putrescine as a substrate and native ´fibroblast derived LOX, which was prepared by collecting the supernatant of IMR90 cells, followed by a size filtration > 10 kDa for concentration and < 50 kDa to separate from LOXL2, or recombinant LOXL2 as enzyme (R&D Systems).

native human LOX enzyme = molecular target: T2, native human LOX enzyme (Homo sapiens, UniProt P28300); experiment: Amplex Red activity/inhibition assay, native fibroblast-derived LOX; format: biochemical; conditions: native fibroblast (IMR90) derived LOX; putrescine substrate
T2 construct: fibroblast derived LOX, which was prepared by collecting the supernatant of IMR90 cells; endogenous in cells; host or cells: IMR90 cells (supernatant, size filtered > 10 kDa and < 50 kDa)
T2 sequence (P28300 169-417): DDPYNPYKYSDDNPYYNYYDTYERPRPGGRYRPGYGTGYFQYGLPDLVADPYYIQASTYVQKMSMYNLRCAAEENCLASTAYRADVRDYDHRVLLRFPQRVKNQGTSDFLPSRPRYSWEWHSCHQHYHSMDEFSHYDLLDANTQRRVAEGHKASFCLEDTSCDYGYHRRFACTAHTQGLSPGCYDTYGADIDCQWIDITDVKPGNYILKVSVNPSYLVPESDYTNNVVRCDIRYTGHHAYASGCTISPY
Protocol: as §1

SMILES: N#CCCN [BAPN, β-aminopropionitrile]
- pIC50 ± SD against recombinant LOXL2 enzyme (recombinant LOXL2): 6.4 ± 0.1
- pIC50 ± SD against native human LOX enzyme (native human LOX enzyme): 5.5 ± 0.1
